Reference: patent publication US6548496B2, “Substituted 3-cyano-[1.7], [1.5], and [1.8] naphthyridine inhibitors of tyrosine kinases” (American Cyanamid Company, priority 1999, dated 2003)

Key:
SKBR3 = test: Inhibition of cancer cell growth by cell number, SKBR3; format: cell-based, Human; conditions: 48 hours exposure, Sulforhodamine B
Protocol: (§1) Human tumor cell lines were plated in 96-well plates (250 μl/well, 1-6×10^4 cells/ml) in RPMI 1640 medium, containing 5% FBS (Fetal Bovine Serum). […] After 48 hours exposure to test compounds, cells were fixed with trichloroacetic acid, and stained with Sulforhodamine B. After washing with trichloroacetic acid, bound dye was solubilized in 10 mM Tris base and optical density was determined using a plate reader. Under conditions of the assay the optical density is proportional to the number of cells in the well. IC50s (concentrations causing 50% inhibition of cell growth) were determined from the growth inhibition plots. The test procedure is described in details by Philip Skehan et. at J. Natl. Canc. Inst., 82, 1107-1112 (1990). […] Information about some of the cell lines used in these test procedures is available from the American […]: Cell Lines and Hybridomas, 1994 Reference Guide, 8th Edition. The Her2Neu cell line is a 3T3 line that has bbeen transfected with Her2 receptor kinase.

LOX = test: Inhibition of cancer cell growth by cell number, LOX; format: cell-based, Human; conditions: 48 hours exposure, Sulforhodamine B
Protocol: as §1

A2780DDP = test: Inhibition of cancer cell growth by cell number, A2780DDP; format: cell-based, Human; conditions: 48 hours exposure, Sulforhodamine B
Protocol: as §1

A2780S = test: Inhibition of cancer cell growth by cell number, A2780S; format: cell-based, Human; conditions: 48 hours exposure, Sulforhodamine B
Protocol: as §1

MDA435 = test: Inhibition of cancer cell growth by cell number, MDA435; format: cell-based, Human; conditions: 48 hours exposure, Sulforhodamine B
Protocol: as §1

A431 = test: Inhibition of cancer cell growth by cell number, A431; format: cell-based, Human; conditions: 48 hours exposure, Sulforhodamine B
Protocol: as §1

SW620 = test: Inhibition of cancer cell growth by cell number, SW620; format: cell-based, Human; conditions: 48 hours exposure, Sulforhodamine B
Protocol: as §1

[1] = target: T1, recombinant human MEK 1 (MAPKK) / human ERK2 (MAPK) (Homo sapiens, UniProt P28482+Q02750); test: Mitogen Activated Protein Kinase (MAPK) coupled Mek-Erk assay; format: biochemical; conditions: coupled MEK 1/ERK2 assay, 33P ATP; read-out: IC50, inhibition of Mitogen Activated Protein Kinase (Mek-Erk)
T1 construct: The recombinant enzymes used were prepared as GST fusion proteins of human ERK 2 and human MEK 1
Protocol: To evaluate inhibitors of the MAP (mitogen activated protein) kinase a two component coupled standard pharmacological test procedure, which measures phosphorylation of a serine/threonine residue in an appropriate sequence in the substrate in the presence and absence of a putative inhibitor, was used. Recombinant human MEK 1 (MAPKK) was first used to activate recombinant human ERK2 (MAPK) and the activated MAPK (ERK) was incubated with substrate (MEP peptide or MYC peptide) in the presence of ATP, Mg^+2 and radiolabeled ^33P ATP. The phosphorylated peptide was captured on a P 81 phosphocellulose filter (paper filter or embedded in microtiter plate) washed and counted by scintillation methods. […]
The reaction was run as follows in 50 mM Tris kinase buffer, pH 7.4 in a reaction volume of 50 ul. […] The filters or MTP were briefly air dried before addition of scintillant and samples were counted in the appropriate scintillation counter set up for reading ^33P isotope. […]
The raw data was captured as cpm Sample replicates were averaged and corrected for background count. Mean cpm data was tabulated by group and % inhibition by a test compound was calculated as (corrected cpm control-corrected. cpm sample/control)×100=% inhibition. […]

[2] = target: T2, epidermal growth factor receptor kinase (EGF-R), His-tagged cytoplasmic domain of EGFR (Homo sapiens, UniProt P00533); test: Inhibition of EGF-R kinase using recombinant enzyme; format: biochemical; conditions: RR-SRC peptide substrate, 33P-ATP, 90 min at room temperature
T2 construct: containing the EGFR cDNA encoding amino acids 645-1186 preceded by Met-Ala-(His)6; made in house; host or cells: Sf9 insect cells, recombinant baculovirus vHcEGFR52
Protocol: Representative test compounds were evaluated for their ability to inhibit the phosphorylation of the tyrosine residue of a peptide substrate catalyzed by the enzyme epidermal growth factor receptor kinase. The peptide substrate (RR-SRC) has the sequence arg-arg-leu-ile-glu-asp-ala-glu-tyr-ala-ala-arg-gly. The enzyme used in this assay is the His-tagged cytoplasmic domain of EGFR. A recombinant baculovirus (vHcEGFR52) was constructed containing the EGFR cDNA encoding amino acids 645-1186 preceded by Met-Ala-(His)6. Sf9 cells in 100 mm plates were infected at an moi of 10 pfu/cell and cells were harvested 48 h post infection. A cytoplasmic extract was prepared using 1% Triton X-100 and applied to Ni-NTA column. After washing the column with 20 mM imidazole, HcEGFR was eluted with 250 mM imidazole (in 50 mM Na2HPO4, pH 8.0, 300 mM NaCl). […]
For the enzyme reaction, 10 uL of each inhibitor (at various concentrations) were added to each well of a 96-well plate. […] The filter discs were washed 2× with 0.5% phosphoric acid and radioactivity was measured using a liquid scintillation counter.
The inhibition data for representative compounds of the invention are shown below in TABLE 1. […] The % inhibition of the test compound was determined for at least three different concentrations and the IC50 value was evaluated from the dose response curve. The % inhibition was evaluated with the following formula: […]

T1 sequence (P28482 2-360): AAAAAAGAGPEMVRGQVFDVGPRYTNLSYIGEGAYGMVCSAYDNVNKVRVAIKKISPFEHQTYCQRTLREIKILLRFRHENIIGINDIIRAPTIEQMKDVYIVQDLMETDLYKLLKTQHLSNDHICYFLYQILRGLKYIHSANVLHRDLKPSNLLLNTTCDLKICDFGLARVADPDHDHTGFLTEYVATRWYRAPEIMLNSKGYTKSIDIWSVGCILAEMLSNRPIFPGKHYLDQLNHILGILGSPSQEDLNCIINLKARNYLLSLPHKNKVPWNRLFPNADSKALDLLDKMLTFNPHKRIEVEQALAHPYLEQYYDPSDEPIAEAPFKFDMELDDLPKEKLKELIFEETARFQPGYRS
T1 sequence (Q02750 whole entry, the tested form may be a part): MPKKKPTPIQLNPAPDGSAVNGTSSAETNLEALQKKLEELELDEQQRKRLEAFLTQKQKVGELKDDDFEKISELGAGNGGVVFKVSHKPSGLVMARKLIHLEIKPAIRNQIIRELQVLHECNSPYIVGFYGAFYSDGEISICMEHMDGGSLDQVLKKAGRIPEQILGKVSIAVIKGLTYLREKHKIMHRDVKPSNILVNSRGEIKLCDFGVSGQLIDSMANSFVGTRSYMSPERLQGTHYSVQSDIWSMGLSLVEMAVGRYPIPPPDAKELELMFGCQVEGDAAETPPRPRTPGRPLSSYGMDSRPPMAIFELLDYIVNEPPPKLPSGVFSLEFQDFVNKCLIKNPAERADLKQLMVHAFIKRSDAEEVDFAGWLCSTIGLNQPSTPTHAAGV
T2 sequence (P00533 669-1210): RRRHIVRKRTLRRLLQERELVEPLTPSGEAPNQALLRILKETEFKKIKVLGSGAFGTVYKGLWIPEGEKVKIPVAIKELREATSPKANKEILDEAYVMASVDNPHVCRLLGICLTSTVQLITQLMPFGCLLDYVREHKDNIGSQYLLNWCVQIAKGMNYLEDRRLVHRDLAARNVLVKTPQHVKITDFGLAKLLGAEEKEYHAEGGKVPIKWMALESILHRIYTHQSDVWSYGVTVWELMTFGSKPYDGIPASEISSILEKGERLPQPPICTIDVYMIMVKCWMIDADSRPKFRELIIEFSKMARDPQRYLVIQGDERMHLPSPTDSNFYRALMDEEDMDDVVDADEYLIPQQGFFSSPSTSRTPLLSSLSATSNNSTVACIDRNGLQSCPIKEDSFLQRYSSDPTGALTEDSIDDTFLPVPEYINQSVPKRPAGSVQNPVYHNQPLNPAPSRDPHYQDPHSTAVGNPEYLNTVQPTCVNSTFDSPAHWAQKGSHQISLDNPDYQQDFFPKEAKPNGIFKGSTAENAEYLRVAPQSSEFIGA

Compound: 1-[4-(3-Bromo-phenylamino)-3-cyano-[1,7]naphthyridin-6-yl]-4-diethylamino-pyridinium Fluoride [Example 65]
- IC50, inhibition of cell growth, SKBR3 (SKBR3): 41 µg/mL
- IC50, inhibition of cell growth, LOX (LOX): 56 µg/mL
- IC50, inhibition of cell growth, A2780DDP (A2780DDP): 52 µg/mL
- IC50, inhibition of cell growth, A2780S (A2780S): 31 µg/mL
- IC50, inhibition of cell growth, MDA435 (MDA435): 47 µg/mL
- IC50, inhibition of cell growth, A431 (A431): 59 µg/mL
- IC50, inhibition of cell growth, SW620 (SW620): 42 µg/mL

Compound: N#Cc1cnc2ncc([N+](=O)[O-])cc2c1Nc1cccc(Br)c1 [Example 21, 4-(3-Bromo-phenylamino)-6-nitro-[1,8]naphthyridine-3-carbonitrile]
- IC50 [1]: 10 µM

Compound: CC#CC(=O)Nc1cnc2ncc(C#N)c(Nc3ccc(F)c(Cl)c3)c2c1 [Example 27, But-2-ynoic acid [5-(3-chloro-4-fluoro-phenylamino)-6-cyano-[1,8]naphthyridin-3-yl]-amide]
- IC50 [2]: > 0.1 µM
